Patent US20160264636A1, “PEPTIDE INHIBITORS OF TEAD/YAP-TAZ INTERACTION” (UNIVERSITE PIERRE ET MARIE CURIE (PARIS 6), priority 2013, published 2016)
Like-named read-outs stand apart in the source and are kept apart here. Peptide text beside a SMILES is read from it.

Assays:
[1] = system: OVCAR8 cells; experiment: MTT cytotoxicity assay, OVCAR8; type: cell-based; details: for Letal Dose (μM) LD25: Table VIII, 72 h, MTT, 25% cell death; for Cell viability (%): Table IX
Method: (§1) The cytotoxicity of penetrating peptides or chemotherapeutic agents, alone or in combination, was evaluated by the (3-(4,5-dimethylthiazol-2-yl)-2,5-diphenyltetrazolium bromide) tetrazolium (MTT) reduction assay. The cells were seeded in 96-well plates (100 μL/well) at a cell density defined from growth curves. After 24 hours of incubation, cells were treated with the peptides for 72 hours. The wells were rinsed two times with RPMI. After washing, 10 μl of stock MTT solution (5 mg/ml; MTT (SIGMA #M-2128) in PBS Dubecco's 1× without Ca^2+ and Mg^2+) was added to a final volume of 100 μl of culture medium. Cell lines were incubated for additional 4 hours at 37° C. under humid atmosphere with 5% (v/v) CO2. The formation of blue formazan crystals was detected under a microscope. An equal volume of 10% SDS (MERCK, #926.238) in 10 mM HCl was added to each well and the plate was placed in the incubator overnight to dissolve formazan crystals. The plates were mixed to ensure complete solubilisation of formazan crystals and absorbance was measured at 570 nm and 620 nm. The percentage of viable cells was estimated using the formula: % cell viability=ΔOD(570-620) treated/ΔOD(570-620)control×100.
(§2) ES2, IGROV-1, OVCAR8 and SKOV3 cell lines come from human ovarian cancer.
(§3) Cell-penetrating peptides (CPPs) comprising the binding site of TEAD to TAZ or YAP or of YAP to TEAD (TAZ, TEAD and YAP peptides, respectively) were chemically synthesized. The effect of the peptides on cell viability was assayed on several human ovarian cancer cell lines. All the ovarian cancer cell lines were treated for 72 h with different peptide concentrations. Cytotoxicity was analysed as described in example 2.

[2] = system: IGROV-1 cells; experiment: MTT cytotoxicity assay, IGROV; type: cell-based; details: for Letal Dose (μM) LD25: Table VIII, 72 h, MTT, 25% cell death; for Cell viability (%): Table IX
Method: as §1, §2, §3

[3] = system: SKOV3 cells; experiment: MTT cytotoxicity assay, SKOV3; type: cell-based; details: for Letal Dose (μM) LD25: Table VIII, 72 h, MTT, 25% cell death; for Cell viability (%): Table IX
Method: as §1, §2, §3

[4] = system: ES2 cells; experiment: MTT cytotoxicity assay, ES2; type: cell-based; details: for Letal Dose (μM) LD25: Table VIII, 72 h, MTT, 25% cell death; for Cell viability (%): Table IX
Method: as §1, §2, §3

[5] = system: H1975 cells; type: cell-based; details: for Letal Dose (μM) LD25: Table II, 72 h, MTT, 25% cell death
Method: (§4) H1650, H1975, H1299, A549 cell lines were cultured in DMEM medium supplemented with 10% of FCS. HBEC cell lines (wt and Ras V12) were cultured in KSFM supplemented with growth factors. All the cell lines come from human non small cell lung cancer (NSCLC).
as §1
(§5) Cell-penetrating peptides (CPPs) comprising the binding site of TEAD to TAZ or YAP or of YAP to TEAD (TAZ, TEAD and YAP peptides, respectively) were chemically synthesized. The effect of the peptides on cell viability was assayed on several human non small cell lung cancer (NSCLC) cell lines. All the lung cancer cell lines were treated for 72 h with different peptide concentrations. Cytotoxicity was analysed as described in Materials and Methods.

[6] = system: HBEC RasV12 cells; type: cell-based; details: for Letal Dose (μM) LD25: Table II, 72 h, MTT, 25% cell death
Method: as §4, §1, §5

[7] = system: A549 cells; type: cell-based; details: for Letal Dose (μM) LD25: Table II, 72 h, MTT, 25% cell death
Method: as §4, §1, §5

[8] = system: H1299 cells; type: cell-based; details: for Letal Dose (μM) LD25: Table II, 72 h, MTT, 25% cell death
Method: as §4, §1, §5

[9] = system: H1650 cells; type: cell-based; details: for Letal Dose (μM) LD25: Table II, 72 h, MTT, 25% cell death
Method: as §4, §1, §5

[10] = system: HBEC wt cells; type: cell-based; details: for Letal Dose (μM) LD25: Table II, HBEC WT, 72 h, MTT, 25% cell death; for Cell viability (%): HBEC wt
Method: as §4, §1, §5

[11] = system: colon, lung and ovarian cancer cell lines; experiment: MTT cytotoxicity, comparison of TAZ LV and VL peptides; type: cell-based, human; details: all lines tested except ES2: HCT116, HT29, SW480, OVCAR8, A549, HT1975; 72 h; 0.1 to 100 μM (FIGS. 5 to 8)
Method: as §1

[12] = system: MP41 uveal melanoma cells; experiment: MTT cytotoxicity assay, MP41; type: cell-based, human; details: MP41; 100 μM; 72 h
Method: as §1
MP41, MP46 and MP66 cell lines come from uveal melanoma patient derived xenografts. They were cultured in RPMI medium supplemented with 20% of FCS.
All the uveal melanoma cell lines were treated for 72 h with different concentrations of the peptides TAZ, “LV”, YAP and TEAD (SEQ ID NO: 35, 36, 37). Cytotoxicity was analysed as described in example 2. […] The best effect was shown in MP41 with about 40% cytotoxicity at 100 μM.

[13] = Table III, drug alone vs its vehicle (HPCD10%, NaCl or Glucose 5%)
[14] = Table IV, drug alone vs its vehicle (Glucose 5% or NaCl)
[15] = Table V, drug alone vs its vehicle (Glucose 5% or NaCl)
[16] = Table VI, peptide alone vs HPCD 10%

Row | Molecule | Letal Dose (μM) LD25 [1] [µM] | Letal Dose (μM) LD25 [2] [µM] | Letal Dose (μM) LD25 [3] [µM] | Letal Dose (μM) LD25 [4] [µM] | Letal Dose (μM) LD25 [5] [µM] | Cell viability (%) [5, 13] [%] | Cell viability (%) [5, 15] [%] | Letal Dose (μM) LD25 [6] [µM] | Cell viability (%) [6, 13] [%] | Cell viability (%) [6, 15] [%] | Letal Dose (μM) LD25 [7] [µM] | Cell viability (%) [7, 13] [%] | Cell viability (%) [7, 15] [%] | Letal Dose (μM) LD25 [8] [µM] | Cell viability (%) [8, 13] [%] | Cell viability (%) [8, 15] [%] | Letal Dose (μM) LD25 [9] [µM] | Cell viability (%) [9, 13] [%] | Cell viability (%) [9, 15] [%] | Letal Dose (μM) LD25 [10] [µM] | also measured
1 | CC(=O)O[C@H]1C(=O)[C@@]2(C)[C@H]([C@H](OC(=O)c3ccccc3)[C@]3(O)C[C@H](OC(=O)[C@H](O)[C@@H](NC(=O)c4ccccc4)c4ccccc4)C(C)=C1C3(C)C)[C@]1(OC(C)=O)CO[C@@H]1C[C@@H]2O [Paclitaxel] | 0.003 | 0.002 | 0.005 | 0.004 |  |  |  |  |  |  |  |  |  |  |  |  |  |  |  |  | 
2 | N.N.[Cl][Pt][Cl] [Cisplatin] |  |  |  |  | 30 | −76.57 | −97.93 | 1 | −44.42 | −89.58 | 3 | −37.43 | −57.64 | 30 | −57.12 | −95.42 | 2 | −55.41 | −83.01 | 2 | Cell viability (%) [5, 14]: −85.91%; Cell viability (%) [6, 14]: −55.51%; Cell viability (%) [7, 14]: −60.45%; Cell viability (%) [8, 14]: −73.62%; Cell viability (%) [9, 14]: −77.26%; Cell viability (%) [10, 13]: −21.45%; Cell viability (%) [10, 14]: −77.04%; Cell viability (%) [10, 15]: −77.96%
3 | C#Cc1cccc(Nc2ncnc3cc(OCCOC)c(OCCOC)cc23)c1 [Tarceva, Erlotinib] |  |  |  |  | 3 | −49.68 | −56.6 | 0.001 | −4.596 | 0.2682 | 0 | −52.89 | −67.3 | >100 | −39.83 | −61.14 | 0.4 | −47.11 | −53.13 | 0.04 | Cell viability (%) [5, 14]: −77.63%; Cell viability (%) [6, 14]: −25.67%; Cell viability (%) [7, 14]: −60.75%; Cell viability (%) [8, 14]: −60.68%; Cell viability (%) [9, 14]: −38.72%; Cell viability (%) [10, 13]: −15.63%; Cell viability (%) [10, 14]: −55.15%; Cell viability (%) [10, 15]: −37.28%
4 | VKKKKIKAEIKI-PPHAFFVLKFWADLNWGPSGEEAGAG (VKKKKIKAEIKIPPHAFFVLKFWADLNWGPSGEEAGAG) [TAZ “VL”] |  |  |  |  |  |  |  |  |  |  |  |  |  |  |  |  |  |  |  |  | effect on cellular viability, TAZ “LV” compared with TAZ “VL” [11]: same effect
5 | CC[C@H](C)[C@H](NC(=O)[C@H](CCCCN)NC(=O)[C@H](CCCCN)NC(=O)[C@H](CCCCN)NC(=O)[C@H](CCCCN)NC(=O)[C@@H](N)C(C)C)C(=O)N[C@@H](CCCCN)C(=O)N[C@@H](C)C(=O)N[C@@H](CCC(=O)O)C(=O)N[C@H](C(=O)N[C@@H](CCCCN)C(=O)N[C@H](C(=O)N[C@@H](CCCCN)C(=O)N[C@H](C(=O)N[C@@H](C)C(=O)N[C@@H](CC(N)=O)C(=O)N[C@H](C(=O)N1CCC[C@H]1C(=O)N[C@@H](CCC(N)=O)C(=O)N[C@H](C(=O)N[C@H](C(=O)N1CCC[C@H]1C(=O)N[C@@H](CCSC)C(=O)N[C@@H](CCCNC(=N)N)C(=O)N[C@@H](CC(C)C)C(=O)N[C@@H](CCCNC(=N)N)C(=O)N[C@@H](CCCCN)C(=O)N[C@@H](CC(C)C)C(=O)N1CCC[C@H]1C(=O)N[C@@H](CC(=O)O)C(=O)O)C(C)C)[C@@H](C)O)C(C)C)[C@@H](C)O)[C@@H](C)CC)[C@@H](C)CC [YAP] (H-VKKKKIKAEIKIKTANVPQTVPMRLRKLPD-OH) | >100 | >100 | >100 | >100 | >100 |  | −26.22 | >100 |  | −72.88 | >100 |  | −23.19 | >100 |  | −40.21 | >100 |  | −45.14 | >100 | Cell viability (%) [5, 16]: −5.766%; Cell viability (%) [6, 16]: −44.98%; Cell viability (%) [7, 16]: −10.25%; Cell viability (%) [8, 16]: −13.8%; Cell viability (%) [9, 16]: −4.488%; Cell viability (%) [10, 15]: −60.73%; Cell viability (%) [10, 16]: −41.35%; cytotoxicity [12]: about 40%
6 | VKKKKIKAEIKIPPHAFFVLKFWADLNWGPSGEEAGAG [TAZ] | 9 | 5 | 60 | 6 | 3 | −49.35 |  | 2.5 | −89.9 |  | 6 | −38 |  | 5 | −24.71 |  | >100 | −30.68 |  | 2.5 | Cell viability (%) [5, 16]: −13.21%; Cell viability (%) [6, 16]: −53.02%; Cell viability (%) [7, 16]: −7.835%; Cell viability (%) [8, 16]: −8.413%; Cell viability (%) [9, 16]: −2.439%; Cell viability (%) [10, 13]: −58.16%; Cell viability (%) [10, 16]: −66.15%; Cell viability (%) ([1]; TAZ 10 μM vs HPCD 10%): −18.7%; Cell viability (%) ([1]; TAZ 25 μM vs HPCD 10%): −24.69%; Cell viability (%) ([2]; TAZ 10 μM vs HPCD 10%): −39.39%; Cell viability (%) ([2]; TAZ 25 μM vs HPCD 10%): −34%; Cell viability (%) ([3]; TAZ 10 μM vs HPCD 10%): −26.64%; Cell viability (%) ([3]; TAZ 25 μM vs HPCD 10%): −36.09%; Cell viability (%) ([4]; TAZ 10 μM vs HPCD 10%): −46.33%; Cell viability (%) ([4]; TAZ 25 μM vs HPCD 10%): −57.44%
7 | CC(=O)O[C@@]12CO[C@@H]1C[C@H](O)[C@@]1(C)C(=O)[C@H](O)C3=C(C)[C@@H](OC(=O)[C@H](O)[C@@H](NC(=O)OC(C)(C)C)c4ccccc4)C[C@@](O)([C@@H](OC(=O)c4ccccc4)[C@H]21)C3(C)C [Docetaxel] |  |  |  |  | 0.0008 | 5.931 | −79.23 | 0.0002 | 15.19 | −95.93 | 0.0002 | 11.73 | −39.31 | 0.007 | −10.53 | −89.07 | 0.0001 | 23.41 | 0.1681 | 0.0002 | Cell viability (%) [5, 14]: −92.17%; Cell viability (%) [6, 14]: −88.64%; Cell viability (%) [7, 14]: −49.02%; Cell viability (%) [8, 14]: −72.38%; Cell viability (%) [9, 14]: −41.32%; Cell viability (%) [10, 13]: 25.93%; Cell viability (%) [10, 14]: −54.02%; Cell viability (%) [10, 15]: −2.578%
8 | N.N.O=C([O-])C1(C(=O)[O-])CCC1.[Pt+2] [Carboplatin] | 30 | 30 | 18 | 10 |  |  |  |  |  |  |  |  |  |  |  |  |  |  |  |  | 
